Results taken from patent US20110105408A1, “THERAPEUTIC PEPTIDES” (INTER-K PTY LIMITED, priority 2008, published 2011).
“Also recorded” adds a separate entry of the source. No end group written: not given here.

Key:
[1] = tested on: MCF-7 breast cancer cells; test: Cell proliferation (MTT) assay, MCF-7 cells; format: cell-based; settings: 48 hours incubation
Description: (§1) Single cell suspensions of viable trypsinised cells were seeded into 96-well tissue culture plates at a density of 2×10^3 cells per well in a volume of 100 μl of a suitable culture media with foetal calf serum (FCS) (e.g., Dulbecco's Modified Eagles Medium (DMEM), with 10% v/v FCS, glutamine, Hepes, and antibiotics). A set of triplicate wells was prepared for each concentration of the peptide dendrimer being tested. Additional sample wells containing untreated cells or media alone were set up in each treatment plate and processed in parallel as reference controls. A zero-time plate of untreated cells and media-alone wells was simultaneously prepared and an MTT assay carried out on this plate at the time of test peptide dendrimer addition to treatment plates. All plates were cultured for 24 hours before addition of the test dendrimer. […] After solubilisation of the salt crystals, a coloured product is produced the measurement of which allows quantitation of the proliferative activity of the cultured cells.
(§2) Appropriate concentrations of the test dendrimer were prepared by dilution of freshly prepared sterile 1 mM stock solutions into cell culture media to give a final well volume of 200 μl containing 10% v/v FCS. […] Plates were gently vortexed to complete solubilisation of crystalline material and absorbance was read at 540-550 nm using a microplate reader. […]

[2] = tested on: phospho-ERK in HT29 cells; test: Phospho-ERK ELISA (FACE ERK1/2 kit) in HT29 cells; format: cell-based, human
Description: (§3) HT29 cells were harvested using 0.5% trypsin EDTA (Invitrogen) and 5000 cells were resuspended into 200 μL, and added to each well of a clear NUNC tissue culture treated 96 well plate (NUNC). Cells were seeded in DMEM media (Invitrogen) supplemented with 10% v/v foetal calf serum (FCS, Invitrogen), 1% L-Glutamine (Invitrogen) and 2% 1M HEPES buffer solution (Invitrogen). Cells were then incubated overnight at 37° C. The following day, the growth medium was replaced with 100 μL of serum-free DMEM supplemented with 1% L-glutamine and 2% 1M HEPES buffer solution, and incubated for a further 24 hours at 37° C. Dendrimers were added to test wells in serum free medium to provide final concentrations of the dendrimers ranging from 0.1-20 μLA. The total volume of each well was 200 uL, and cells were incubated at 37° C. for times ranging from 5 minutes to 4 hours. In those studies in which cells were subjected to stimulation by serum, 22 μL FCS (10% v/v final concentration) was added to wells for the final ten minutes of the culture period at 37° C. Serum-free media (SFM) only (22 μL) was added to non-serum stimulated cells.
Phospho-ERK levels were determined using the FACE ERK1/2 ELISA kit according to the manufacturer's instructions (Active Motif, kit obtained from Australian Biosearch, WA, Australia). Briefly, media was replaced and cells fixed with 4% formaldehyde in PBS, and after a 1 hour with antibody blocking buffer (supplied), the primary phospho-ERK or total-ERK antibody was added and incubated overnight at 4° C. Antibody dilution buffer only was added to control test wells containing no primary antibody. The next day, HRP-conjugated secondary antibody was added for one hour before plates were developed and the absorbance measured at 450 nm using a Labsystems Multiskan EX microplate reader (Labsystems, Thermo Labsystems, UK).
The effectiveness of the peptide dendrimer IK248 described in Example 2 in inhibiting growth factor mediated activation of ERK in HT29 cancer cells (i.e., (FCS stimulated) compared to various agents comprising the polypeptide RSKAKNPLYR (SEQ ID No. 6) coupled to different peptide facilitator moieties for facilitating passage of the polypeptide across the plasma cell membrane into the cytosol of the cells was evaluated. Phospho-ERK levels in the cells following treatment with 5 μM IK248 (Dend 8) for 1 hour or polypeptide-facilitator moiety agents (each at 5 μM for the same duration) were measured essentially as described in Example 1.3. The facilitator moieties utilised were the signal peptide fragment AAVALLPAVLLALLA (SEQ ID No. 16), the TAT-G peptide GRKKRRQRRRPPQG (SEQ ID No. 17), a modified pentratin sequence Tr-Pen RRQKWKKG (SEQ ID No. 18), and the penetratin peptide RQIKIWFQNRRMKWKKCS—SC (SEQ ID No. 19) wherein S—S indicates a disulphide bridge between the adjacent cysteine residues.
The peptide RSKAKNPLYR (SEQ ID. No. 6) or peptide dendrimers of the type illustrated in FIG. 3 comprising lysine branching units presenting either 8 (IK248) or 10 (IK248B) monomer units of the peptide RSKAKNPLYR (SEQ ID No. 6) were utilised in this study. Phospho-ERK levels were evaluated by ELISA utilising an Active Motif FACE ERK1/2 ELISA kit (Australian Biosearch, WA, Australia) as described in Example 1.3.

[3] = tested on: DU145 prostate cancer cells; test: Cell proliferation (MTT) assay, DU145 cells; format: cell-based; settings: 48 hours incubation
Description: as §1, §2

[4] = tested on: MKN45 gastric carcinoma cells; test: Cell proliferation (MTT) assay, MKN45 cells; format: cell-based; settings: 48 hours incubation
Description: as §1, §2

HT29 colon cancer cells [5] = test: Cell proliferation (MTT) assay, HT29 cells; format: cell-based, human; settings: 24 hour incubation period
total ERK in HT29 cells = test: Total-ERK ELISA in HT29 cells; format: cell-based, human; settings: HT29 cells treated with the dendrimer
Description: as §3, with “In those studies in which cells were subjected to stimulation by serum, 22 μL FCS (10% v/v final concentration) was added to wells for the final ten minutes of the culture period at 37° C. Serum-free media (SFM) only (22 μL) was added to non-serum stimulated cells.” left out
Phospho-ERK levels were determined using the FACE ERK1/2 ELISA kit according to the manufacturer's instructions (Active Motif, kit obtained from Australian Biosearch, WA, Australia). […] The next day, HRP-conjugated secondary antibody was added for one hour before plates were developed and the absorbance measured at 450 nm using a Labsystems Multiskan EX microplate reader (Labsystems, Thermo Labsystems, UK).

HT29 colon cancer cells [6] = test: Cell proliferation (MTT) assay, HT29 cells; format: cell-based, human; settings: for inhibition of proliferation of HT29 cells (MTT): 48 hours culture with dendrimer
Description: Single cell suspensions of viable trypsinised cells were seeded into 96-well tissue culture plates at a density of 2×10^3 cells per well in a volume of 100 μl of a suitable culture media with foetal calf serum (FCS) (e.g., Dulbecco's Modified Eagles Medium (DMEM), with 10% v/v FCS, glutamine, Hepes, and antibiotics). A set of triplicate wells was prepared for each concentration of the peptide dendrimer being tested. Additional sample wells containing untreated cells or media alone were set up in each treatment plate and processed in parallel as reference controls. A zero-time plate of untreated cells and media-alone wells was simultaneously prepared and an MTT assay carried out on this plate at the time of test peptide dendrimer addition to treatment plates. All plates were cultured for 24 hours before addition of the test dendrimer. To prepare the MTT solution 100 mg of MTT (3-(4,5-dimethylthiazolyl-2)-2,5-diphenyltetrazolium bromide) (Cat #. M-128, Sigma, St Louis Mo.), is mixed with 20 ml of PBS at pH 7.4. The resulting solution is filter sterilized (0.2 μM syringe filter) and stored at 4° C. protected from light until use. MTT substrate is cleaved in growing cells to yield a water insoluble salt. After solubilisation of the salt crystals, a coloured product is produced the measurement of which allows quantitation of the proliferative activity of the cultured cells.
Appropriate concentrations of the test dendrimer were prepared by dilution of freshly prepared sterile 1 mM stock solutions into cell culture media to give a final well volume of 200 μl containing 10% v/v FCS. The zero-plate was processed by addition of MTT at this time. Cell culture was continued for a further 24 or 48 hours before addition of 20 μl of MTT in PBS (5 mg/ml, 0.2 um filter sterilised). The MTT cell proliferation assay measures cell proliferation rate and, in instances where cell viability is compromised, the assay indicates a comparative reduction in cell viability. After a 3 hour incubation in the presence of MTT (5% CO2 in air at 37° C.), plates were centifuged at 450 g for 5 minutes, supernatant removed by gentle suction and precipitated tetrazolium salt resuspended into 150 μl DMSO:glycine (0.1 M glycine, 0.1 M NaCl pH 10.5) (6:1 v/v) solution. Plates were gently vortexed to complete solubilisation of crystalline material and absorbance was read at 540-550 nm using a microplate reader. Sample data were processed to determine the comparative growth of treated samples relative to untreated controls.
HT29 cells were cultured for 48 hours in the presence of selected dendrimers and proliferation of the cells was assessed by MTT assay essentially as described in Example 1.2. The results were calculated as percentage proliferation of control cells (not treated with dendrimer).

Which results are given for CC(C)C[C@H](NC(=O)[C@@H]1CCCN1C(=O)[C@H](CC(N)=O)NC(=O)[C@H](CCCCN)NC(=O)[C@H](C)NC(=O)[C@H](CCCCN)NC(=O)[C@H](CO)NC(=O)[C@@H](N)CCCNC(=N)N)C(=O)N[C@@H](Cc1ccc(O)cc1)C(=O)N[C@@H](CCCNC(=N)N)C(=O)NCCCC[C@H](NC(=O)[C@H](CCCNC(=N)N)NC(=O)[C@H](Cc1ccc(O)cc1)NC(=O)[C@H](CC(C)C)NC(=O)[C@@H]1CCCN1C(=O)[C@H](CC(N)=O)NC(=O)[C@H](CCCCN)NC(=O)[C@H](C)NC(=O)[C@H](CCCCN)NC(=O)[C@H](CO)NC(=O)[C@@H](N)CCCNC(=N)N)C(=O)NCCCC[C@H](NC(=O)[C@H](CCCCNC(=O)[C@H](CCCNC(=N)N)NC(=O)[C@H](Cc1ccc(O)cc1)NC(=O)[C@H](CC(C)C)NC(=O)[C@@H]1CCCN1C(=O)[C@H](CC(N)=O)NC(=O)[C@H](CCCCN)NC(=O)[C@H](C)NC(=O)[C@H](CCCCN)NC(=O)[C@H](CO)NC(=O)[C@@H](N)CCCNC(=N)N)NC(=O)[C@H](CCCNC(=N)N)NC(=O)[C@H](Cc1ccc(O)cc1)NC(=O)[C@H](CC(C)C)NC(=O)[C@@H]1CCCN1C(=O)[C@H](CC(N)=O)NC(=O)[C@H](CCCCN)NC(=O)[C@H](C)NC(=O)[C@H](CCCCN)NC(=O)[C@H](CO)NC(=O)[C@@H](N)CCCNC(=N)N)C(=O)NCCCC[C@H](NC(=O)[C@H](CCCCNC(=O)[C@H](CCCCNC(=O)[C@H](CCCNC(=N)N)NC(=O)[C@H](Cc1ccc(O)cc1)NC(=O)[C@H](CC(C)C)NC(=O)[C@@H]1CCCN1C(=O)[C@H](CC(N)=O)NC(=O)[C@H](CCCCN)NC(=O)[C@H](C)NC(=O)[C@H](CCCCN)NC(=O)[C@H](CO)NC(=O)[C@@H](N)CCCNC(=N)N)NC(=O)[C@H](CCCNC(=N)N)NC(=O)[C@H](Cc1ccc(O)cc1)NC(=O)[C@H](CC(C)C)NC(=O)[C@@H]1CCCN1C(=O)[C@H](CC(N)=O)NC(=O)[C@H](CCCCN)NC(=O)[C@H](C)NC(=O)[C@H](CCCCN)NC(=O)[C@H](CO)NC(=O)[C@@H](N)CCCNC(=N)N)NC(=O)[C@H](CCCCNC(=O)[C@H](CCCNC(=N)N)NC(=O)[C@H](Cc1ccc(O)cc1)NC(=O)[C@H](CC(C)C)NC(=O)[C@@H]1CCCN1C(=O)[C@H](CC(N)=O)NC(=O)[C@H](CCCCN)NC(=O)[C@H](C)NC(=O)[C@H](CCCCN)NC(=O)[C@H](CO)NC(=O)[C@@H](N)CCCNC(=N)N)NC(=O)[C@H](CCCNC(=N)N)NC(=O)[C@H](Cc1ccc(O)cc1)NC(=O)[C@H](CC(C)C)NC(=O)[C@@H]1CCCN1C(=O)[C@H](CC(N)=O)NC(=O)[C@H](CCCCN)NC(=O)[C@H](C)NC(=O)[C@H](CCCCN)NC(=O)[C@H](CO)NC(=O)[C@@H](N)CCCNC(=N)N)C(=O)NCCC(N)=O [IK248]?
inhibition of growth/proliferation of MCF-7 breast cancer cells [1]: inhibited growth/proliferation; greater inhibition of activated phospho-ERK than the closest test agent (TAT-G RSKAKNPLYR) ([2]; 5 μM, 1 hour, FCS stimulated HT29 cells): at least 30%; inhibition of activated phospho-ERK ([2]; 5 μM, 4 hours, FCS stimulated HT29 cells (data not shown)): approx. 95%; phospho-ERK level in FCS stimulated cells ([2]; HI FCS stimulated, 20 μM, 1 hour incubation): lower than in non-FCS stimulated cells treated with the dendrimer, but remained higher than phospho-ERK basal levels in control cells not treated with the dendrimer; basal phospho-ERK level relative to control cells ([2]; not FCS stimulated, 1 μM-10 μM, 4 hr incubation): incease relative to control cells; basal phospho-ERK level compared to control cells, time course ([2]; not FCS stimulated, 5 μM, 5, 10 and 30 minutes, and 1 hour): markedly increased phospho-ERK levels at all time points evaluated; inhibition of growth/proliferation of DU145 prostate cancer cells [3]: inhibited growth/proliferation; inhibition of growth/proliferation of MKN45 gastric carcinoma cells [4]: inhibited growth/proliferation; inhibition of proliferation of HT29 colon cancer cells (MTT) (HT29 colon cancer cells [5]): inhibit proliferation of HT29 colon cancer cells; also recorded: substantially more effective at inhibiting cell growth/proliferation than the peptide dendrimer comprising 4 monomers of the polypeptide; total ERK levels (total ERK in HT29 cells): remained essentially unaffected

Which “inhibition of proliferation of HT29 cells (MTT)” value (shortened to “inhibition … of HT29 cells (MTT)”) (HT29 colon cancer cells [6]) does the source give for “Dend8 β3: peptide dendrimer presenting 8 monomer units of the β3 based peptide RARAKNPLYK (SEQ ID No. 7) (also: dendrimer of 8 peptide copies)” here?
The value was “inhibited proliferation of the HT29 cancer cells”.

How did the “inhibition … of HT29 cells (MTT)” value (HT29 colon cancer cells [6]) turn out when “Dend8 β5: peptide dendrimer presenting 8 monomer units of the β5 based peptide RSRARNPLYR (SEQ ID No. 8) (also: dendrimer of 8 peptide copies)” was run?
Its value is “inhibited proliferation of the HT29 cancer cells; also recorded: more effective”.

With “Dend 4: peptide dendrimer comprising 4 monomer units of the polypeptide RSKAKNPLYR (SEQ ID No. 6) (also: dendrimer of 4 peptide copies)” as the compound, how does the “inhibition of proliferation of HT29 colon cancer cells (MTT)” value (HT29 colon cancer cells [5]) read?
The value was “inhibit proliferation of HT29 colon cancer cells”.

Which “inhibition … of HT29 cells (MTT)” value (HT29 colon cancer cells [6]) does the source give for “Dend 9 10(4): dendrimer presenting 9 monomer units of the peptide RSKAKNPLYR (SEQ ID No. 6) (also: dendrimer of 9 peptide copies)” here?
Its value is “Dend 12 was more effective than Dend 9”.

Which “inhibition … of HT29 cells (MTT)” value (HT29 colon cancer cells [6]) does the source give for “dendrimer presenting 12 monomer units of the peptide RSKAKNPLYR (SEQ ID No. 6) (also: dendrimer of 12 peptide copies) [Dend 12 10(4)]” here?
The value was “more effective than Dend 9”.

What about the IC50 (HT29 colon cancer cells [6]; 48 hours, MTT) of the same compound?
Its IC50 is 1 µM.

And the “dendrimer concentration required for total kill” value (HT29 colon cancer cells [6]; HT29 cells, 48 hours, MTT)?
The value was 10 µM.
